One assay addresses AC (Mus musculus (Mouse), UniProt Q9WV54). Kind of assay: AC activity ex vivo in mouse tissues after systemic administration. As to conditions: mice. The protocol: Specifically, it is evidences the effects of compound of Example 7 or vehicle (15% polyethylene glycol, 15% Tween80, 70% saline) on AC activity in mouse lungs. AC activity measured ex vivo 30 minutes or 3 hours after intraperitoneal injection of compound of Example 7 (10 mg-kg^−1). Results are expressed as mean±s.e.m. (n=6). ***p<0.001 vs vehicle, one-way ANOVA followed by Dunnet.
Specifically, FIG. 7 illustrates the effects of compound of Example 25 or vehicle (15% polyethylene glycol, 15% Tween80, 70% saline) on AC activity in mouse lungs (oral administration, A) or cerebral cortex (intraperitoneal administration, B) and on ceramide levels (C and D). Results are expressed as mean±s.e.m. (n=6). *p<0.05, **p<0.01, ***p<0.001 vs vehicle, one-way ANOVA followed by Dunnet.
hAC protein preparation (10 μg) was preincubated with inhibitors (final DMSO concentration 1%) in assay buffer (100 mM sodium phosphate, 0.1% Nonidet P-40, 150 mM NaCl, 3 mM DTT, 100 mM sodium citrate, pH 4.5) for 30 min at 37° C. Reactions were started by the addition of 50 μM N-lauroyl ceramide (Nu-Chek Prep, Elysian, Minn.) and carried on for 30 min at 37° C. Reactions were stopped by addition of a mixture of chloroform/methanol (2:1, vol/vol) containing 1 nmol 11-lauroleic acid (NuChek Prep). The organic phases were collected, dried under nitrogen and analyzed by UPLC/MS (Acquity, Waters). In the negative-ion mode monitoring the reaction product (lauric acid, m/z=199) using 11-lauroleic acid as internal standard.

For the next assay, the system named is SW403 cells. Kind of assay: sphingosine and ceramide levels in SW403 cells. The format is cell-based, human. The conditions noted are these: 0.1-20 μM, 3 hours. The protocol: (A) Intact cells were treated with compound of Example 25 (0.1-20 μM) or vehicle and AC activity was measured 3 hours later in cell lysates. (B-E) Intact cells were exposed to compound of Example 25 (0.1-20 μM) for 3 hours and sphingosine/sphinganine (B), dihydroceramides (C), medium chain ceramides (D), long chain ceramides (E) were quantified. Results are expressed as mean±s.e.m. (n=3). *p<0.05, **p<0.01, ***p<0.001 vs vehicle, two-way ANOVA followed by Dunnet.
(A) Intact cells were treated with compound of Example 25 (20 μM) or vehicle and AC activity was measured 1 to 48 hours later in cell lysates. (B-E) Intact cells were exposed to compound of Example 25 (20 μM) and sphingosine (B), C16:0 dihydroceramide (C), C16:0 ceramide (D) were quantified. Results are expressed as mean±s.e.m. […]
Lipids were extracted from mouse tissue lysate with a chloroform/MeOH mixture (2:1 v/v, 3 mL) containing internal standards. […] Ceramides, sphingosine and sphinganine were analyzed by LC-MS/MS, using a Waters Acquity UPLC coupled with a Waters Xevo TQMS and interfaced with ESI. […]
Tissue-derived sphingosine and sphinganine were identified by comparison of their LC retention times and MS^2 fragmentation patterns with those of authentic standards (Avanti Polar Lipids). Extracted ion chromatograms were used to quantify sphingosine ([…], m/z 300.5>282.5) and sphinganine standard (C18:0, m/z 303>285). […]

Another assay concerns the target caspase-8 (h) (Homo sapiens (Human), UniProt Q14790). Kind of assay: Cerep enzyme inhibition screen: caspase-8. Format: biochemical. As to conditions: mean of two determinations, read-out: Inhibitory activity (% Inh. at 10 μM), mean. An excerpt: (§1) Compound of Example 25 falling in both Formula (I) and (Ia) was selected to be tested for off-target effects on a set of enzymes that include proteases (aspartic, cysteine, and serine), cyclooxygenases as well as lipoxygenases and group IV phospholipase (sPLA2) (Table 3). [table]

For assay [1], the system named is proteases (aspartic, cysteine, and serine), cyclooxygenases, lipoxygenases and group IV phospholipase (sPLA2). Kind of assay: off-target test on a set of enzymes (overall statement). Format: biochemical. The conditions noted are these: 10 μM.
From the text: as §1

Sequence of AC (Q9WV54 19-141): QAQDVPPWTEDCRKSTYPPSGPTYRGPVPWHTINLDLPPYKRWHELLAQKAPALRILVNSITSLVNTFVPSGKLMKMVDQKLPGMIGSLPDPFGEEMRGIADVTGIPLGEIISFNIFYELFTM
Sequence of AC (Q9WV54 142-394): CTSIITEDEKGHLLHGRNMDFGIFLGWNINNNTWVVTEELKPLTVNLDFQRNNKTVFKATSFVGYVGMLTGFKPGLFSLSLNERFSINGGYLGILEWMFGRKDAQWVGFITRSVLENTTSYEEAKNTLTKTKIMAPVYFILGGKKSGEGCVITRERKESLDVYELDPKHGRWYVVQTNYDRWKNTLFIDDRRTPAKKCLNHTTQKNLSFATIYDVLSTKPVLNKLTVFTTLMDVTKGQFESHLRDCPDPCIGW
Sequence of caspase-8 (h) (Q14790 217-374): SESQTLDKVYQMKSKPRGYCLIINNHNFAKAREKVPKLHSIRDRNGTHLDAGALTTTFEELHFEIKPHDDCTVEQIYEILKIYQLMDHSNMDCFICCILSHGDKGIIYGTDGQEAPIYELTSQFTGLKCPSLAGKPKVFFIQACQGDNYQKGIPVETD
Sequence of caspase-8 (h) (Q14790 385-479): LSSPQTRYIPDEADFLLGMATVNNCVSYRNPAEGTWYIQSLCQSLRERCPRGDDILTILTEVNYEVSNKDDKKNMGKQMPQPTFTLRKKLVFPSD

`O=C(NCCCCc1ccccc1)n1c(=O)oc2cc(Br)ccc21` [Example 7, 6-Bromo-2-oxo-N-(4-phenylbutyl)-1,3-benzoxazole-3-carboxamide]: on AC (10 mg-kg^−1 intraperitoneal, after 30 minutes or 3 hours), the “AC activity in lungs” value is given as “time-dependent inhibition of AC activity in lungs”.
Regarding `O=C(NCCCCc1ccccc1)n1c(=O)oc2cc(-c3ccc(F)cc3)ccc21` [Example 25, 6-(4-Fluorophenyl)-2-oxo-N-(4-phenylbutyl)-1,3-benzoxazole-3-carboxamide], in the assay with SW403 cells, the “di-hydro ceramides and ceramide species levels” value was “intracellular accumulation of various di-hydro ceramides and ceramide species”; the sphingosine levels entry was “parallel decrease in sphingosine levels”. Besides, on caspase-8 (h), the inhibition at 10 µM is -0.9%. Further, the “AC activity in lungs” value at AC (3 or 10 mg-kg^−1, intraperitoneal or oral (FIG. 7A oral)) is “time and dose-dependent inhibition of AC activity”. Moreover, the “AC activity in brain cortex” value at AC (3 or 10 mg-kg^−1, intraperitoneal or oral (FIG. 7B intraperitoneal)) was “time and dose-dependent inhibition of AC activity”. Further, the “activity towards the off-target enzyme set” value in assay [1] is on record as “has not any significant activity”.
